Our source for the DC50 and Dmax values is patent US11897862B2 (Gilead Sciences, Inc., priority 2022, dated 2024).

The structures appear in SMILES notation. Bounds are passed on as bounds.

The target in one test is T1, IKZF1 (Homo sapiens, UniProt Q13422+Q96SW2).
T1 construct: expressed in transfected cells
Kind of test: HEK293 HiBiT in vitro degradation of IKZF1. The test is classed as cell-based. The following applies: for DC50: HEK293 HiBiT, 18-24 hr incubation, normalized to DMSO control, read-out: IKZF1 EC50; for Dmax: HEK293, HEK293 HiBiT, maximum degradation at the highest concentration tested. The method in brief: (§1)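 Flp-In T-REx HEK293 pools stably expressing C-terminal HiBiT-tagged IKZF1, IKZF2 or SALL4 (single-copy, Tet-On), induced overnight with […] doxycycline. Cells exposed to serially diluted compounds for 18-24 hr at 37° C. Nano-Glo lytic luminescence gave EC50 and Dmax.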

A further test has as its target IKZF2 (Homo sapiens, UniProt Q96SW2+Q9UKS7). Kind of test: HEK293 HiBiT in vitro degradation of IKZF2. Also noted: expressed in transfected cells. The note with it: for Dmax: HEK293, HEK293 HiBiT, maximum degradation at the highest concentration tested; for DC50: HEK293 HiBiT, 18-24 hr incubation, normalized to DMSO control, read-out: IKZF2 EC50. It is filed as cell-based. The method in brief:
as §1

In general, Dmax refers to the greatest extent of degradation seen.

Chain of IKZF2 (Q9UKS7 1-500 isoform Q9UKS7-2): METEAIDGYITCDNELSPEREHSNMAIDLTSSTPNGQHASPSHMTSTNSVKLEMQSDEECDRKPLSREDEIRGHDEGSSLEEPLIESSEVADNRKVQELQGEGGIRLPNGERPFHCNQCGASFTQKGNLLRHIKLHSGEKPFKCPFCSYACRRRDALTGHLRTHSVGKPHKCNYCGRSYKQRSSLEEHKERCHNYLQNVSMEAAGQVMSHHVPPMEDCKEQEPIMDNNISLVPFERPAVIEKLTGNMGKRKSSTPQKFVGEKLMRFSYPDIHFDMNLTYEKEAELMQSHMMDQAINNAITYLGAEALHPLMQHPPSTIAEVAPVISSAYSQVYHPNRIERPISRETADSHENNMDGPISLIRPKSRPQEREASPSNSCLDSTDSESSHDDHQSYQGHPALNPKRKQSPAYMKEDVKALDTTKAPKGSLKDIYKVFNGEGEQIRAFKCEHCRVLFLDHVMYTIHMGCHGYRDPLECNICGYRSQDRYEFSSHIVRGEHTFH
Chain of IKZF2 (Q96SW2 whole entry): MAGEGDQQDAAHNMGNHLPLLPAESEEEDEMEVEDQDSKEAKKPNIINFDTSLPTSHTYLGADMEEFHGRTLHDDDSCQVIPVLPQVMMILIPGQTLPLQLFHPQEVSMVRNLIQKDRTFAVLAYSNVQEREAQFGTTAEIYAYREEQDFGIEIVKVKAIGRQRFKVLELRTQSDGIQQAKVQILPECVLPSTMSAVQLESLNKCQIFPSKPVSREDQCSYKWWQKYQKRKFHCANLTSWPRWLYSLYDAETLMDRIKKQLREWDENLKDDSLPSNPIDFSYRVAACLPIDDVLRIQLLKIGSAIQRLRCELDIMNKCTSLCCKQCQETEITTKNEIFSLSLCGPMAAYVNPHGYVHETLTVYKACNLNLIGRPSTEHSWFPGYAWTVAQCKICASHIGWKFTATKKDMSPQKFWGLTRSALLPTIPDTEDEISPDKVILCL
Chain of IKZF2 (Q16531 whole entry partner): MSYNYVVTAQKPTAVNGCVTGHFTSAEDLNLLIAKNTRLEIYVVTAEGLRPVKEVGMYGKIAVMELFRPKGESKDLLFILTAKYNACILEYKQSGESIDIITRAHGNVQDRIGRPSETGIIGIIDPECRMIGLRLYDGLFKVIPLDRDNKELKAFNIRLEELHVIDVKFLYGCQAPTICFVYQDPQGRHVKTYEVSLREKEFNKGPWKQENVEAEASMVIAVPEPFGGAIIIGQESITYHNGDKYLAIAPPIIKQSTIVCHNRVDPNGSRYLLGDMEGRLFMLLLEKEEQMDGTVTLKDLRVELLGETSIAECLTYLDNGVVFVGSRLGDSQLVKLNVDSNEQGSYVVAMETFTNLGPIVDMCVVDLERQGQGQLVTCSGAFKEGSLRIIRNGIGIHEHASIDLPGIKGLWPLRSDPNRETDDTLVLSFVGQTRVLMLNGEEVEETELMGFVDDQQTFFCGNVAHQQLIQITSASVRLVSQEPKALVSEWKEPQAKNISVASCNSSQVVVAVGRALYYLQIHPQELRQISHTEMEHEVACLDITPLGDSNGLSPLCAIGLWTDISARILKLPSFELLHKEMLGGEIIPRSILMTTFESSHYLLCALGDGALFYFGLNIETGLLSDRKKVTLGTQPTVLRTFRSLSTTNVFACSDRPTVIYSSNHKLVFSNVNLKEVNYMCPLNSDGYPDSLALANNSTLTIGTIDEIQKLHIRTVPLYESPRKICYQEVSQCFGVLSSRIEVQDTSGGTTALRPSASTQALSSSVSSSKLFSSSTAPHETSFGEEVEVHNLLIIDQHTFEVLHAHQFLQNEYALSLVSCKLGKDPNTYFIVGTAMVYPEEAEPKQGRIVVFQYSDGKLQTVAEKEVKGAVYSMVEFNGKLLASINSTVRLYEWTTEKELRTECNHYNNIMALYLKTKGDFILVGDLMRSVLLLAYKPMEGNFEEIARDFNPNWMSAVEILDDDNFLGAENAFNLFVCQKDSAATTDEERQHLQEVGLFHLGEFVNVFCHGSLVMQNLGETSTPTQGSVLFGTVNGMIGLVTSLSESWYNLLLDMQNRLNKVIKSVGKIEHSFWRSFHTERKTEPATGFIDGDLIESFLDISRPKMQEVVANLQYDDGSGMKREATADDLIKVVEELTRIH
T1 sequence (Q13422 whole entry): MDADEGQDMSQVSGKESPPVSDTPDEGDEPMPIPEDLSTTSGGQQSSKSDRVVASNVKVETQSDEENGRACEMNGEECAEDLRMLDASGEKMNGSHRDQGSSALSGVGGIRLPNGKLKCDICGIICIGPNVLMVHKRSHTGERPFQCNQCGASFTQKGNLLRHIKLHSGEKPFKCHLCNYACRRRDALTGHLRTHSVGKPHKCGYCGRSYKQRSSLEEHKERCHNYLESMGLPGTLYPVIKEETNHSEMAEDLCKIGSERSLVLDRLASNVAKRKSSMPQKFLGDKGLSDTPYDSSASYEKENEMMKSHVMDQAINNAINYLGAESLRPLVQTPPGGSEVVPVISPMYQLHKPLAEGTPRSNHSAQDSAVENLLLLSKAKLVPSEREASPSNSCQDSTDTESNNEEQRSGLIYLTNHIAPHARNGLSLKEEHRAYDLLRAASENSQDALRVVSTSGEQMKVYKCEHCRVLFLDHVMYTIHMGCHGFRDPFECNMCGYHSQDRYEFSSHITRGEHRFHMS
T1 sequence (Q96SW2 whole entry): as the sequence (Q96SW2 whole entry) above
T1 sequence (Q16531 whole entry partner): as the sequence (Q16531 whole entry partner) above

Take `O=C1CCC(N2Cc3cc(C[C@H]4CCCC[C@@H]4NCc4ccccn4)ccc3C2=O)C(=O)N1` (stereo partly drawn) [Example 45, 3-(1-oxo-5-(((1R,2S)-2-((pyridin-2-ylmethyl)amino)cyclohexyl)methyl)isoindolin-2-yl)piperidine-2,6-dione]: at IKZF1, the DC50 was above 1000 nM. Further, at IKZF2, the Dmax worked out at 71% and the DC50 stood at 131 nM.

On to `O=C1CCC(N2Cc3cc(C[C@H]4CCCC[C@@H]4NC4CC4)ccc3C2=O)C(=O)N1` (stereo partly drawn) [Example 47, 3-(5-(((1R,2S)-2-(cyclopropylamino)cyclohexyl)methyl)-1-oxoisoindolin-2-yl)piperidine-2,6-dione], for which the DC50 on IKZF1 is above 1000 nM; at IKZF2, 6 nM. At IKZF2, this molecule yielded a Dmax of 93%.

On to `O=C1CCC(N2Cc3cc(C[C@H]4CCCC[C@@H]4NC4CCC4)ccc3C2=O)C(=O)N1` (stereo partly drawn) [Example 48, 3-(5-(((1R,2S)-2-(cyclobutylamino)cyclohexyl)methyl)-1-oxoisoindolin-2-yl)piperidine-2,6-dione], for which the DC50 on IKZF1 is above 1000 nM. At IKZF2, the Dmax is 96% and the DC50 was found to be 24 nM.

On to `O=C1CCC(N2Cc3cc(C[C@H]4CCCC[C@@H]4NCc4ccc(F)cn4)ccc3C2=O)C(=O)N1` (stereo partly drawn) [Example 49, 3-(5-(((1R,2S)-2-(((5-fluoropyridin-2-yl)methyl)amino)cyclohexyl)methyl)-1-oxoisoindolin-2-yl)piperidine-2,6-dione], for which, on IKZF1, the DC50 is above 1000 nM. In addition, on IKZF2, the Dmax came to 66% and the DC50 came to 88 nM.

In the case of `O=C1CCC(N2Cc3cc(C[C@H]4CCCC[C@@H]4NCc4ncccc4F)ccc3C2=O)C(=O)N1` (stereo partly drawn) [Example 50, 3-(5-(((1R,2S)-2-(((3-fluoropyridin-2-yl)methyl)amino)cyclohexyl)methyl)-1-oxoisoindolin-2-yl)piperidine-2,6-dione], the DC50 on IKZF1 was above 1000 nM. Besides, on IKZF2, the Dmax was found to be 57% and the DC50 was 111 nM.

For `O=C1CCC(N2Cc3cc(C[C@H]4CCCC[C@@H]4NCc4cncc(F)c4)ccc3C2=O)C(=O)N1` (stereo partly drawn) [Example 51, 3-(5-(((1R,2S)-2-(((5-fluoropyridin-3-yl)methyl)amino)cyclohexyl)methyl)-1-oxoisoindolin-2-yl)piperidine-2,6-dione], the DC50 at IKZF1 was above 1000 nM. In addition, at IKZF2, the Dmax was found to be 80% and the DC50 turned out to be 45 nM.

For the molecule `CC(C)N[C@H]1CC=CC[C@@H]1Cc1ccc2c(c1)CN(C1CCC(=O)NC1=O)C2=O` (stereo partly drawn) [Example 54, 3-(5-(((1R,6S)-6-(isopropylamino)cyclohex-3-en-1-yl)methyl)-1-oxoisoindolin-2-yl)piperidine-2,6-dione], the DC50 on IKZF1 is above 1000 nM. Moreover, on IKZF2, the Dmax came to 86% and the DC50 is 31 nM.

For `O=C1CCC(N2Cc3cc(C[C@H]4CCCC[C@@H]4N4CC(c5ccccc5)C4)ccc3C2=O)C(=O)N1` (stereo partly drawn) [Example 55, 3-(1-oxo-5-(((1R,2S)-2-(3-phenylazetidin-1-yl)cyclohexyl)methyl)isoindolin-2-yl)piperidine-2,6-dione], the DC50 on IKZF1 was above 1000 nM. At IKZF2, the Dmax was 87% and the DC50 stood at 25 nM.

In the case of `CC(C)(C)CN[C@H]1CCCC[C@@H]1Cc1ccc2c(c1)CN(C1CCC(=O)NC1=O)C2=O` (stereo partly drawn) [Example 57, 3-(5-(((1R,2S)-2-(neopentylamino)cyclohexyl)methyl)-1-oxoisoindolin-2-yl)piperidine-2,6-dione], the DC50 is above 1000 nM at IKZF1 and 25 nM on IKZF2. On IKZF2, this molecule had a Dmax of 89%.

For `O=C1CCC(N2Cc3cc(C[C@H]4CCCC[C@@H]4NCc4cccnc4C(F)(F)F)ccc3C2=O)C(=O)N1` (stereo partly drawn) [Example 58, 3-(1-oxo-5-(((1R,2S)-2-(((2-(trifluoromethyl)pyridin-3-yl)methyl)amino)cyclohexyl)methyl)isoindolin-2-yl)piperidine-2,6-dione], on IKZF1, the Dmax amounted to 34% and the DC50 came out at 206 nM. Besides, at IKZF2, the Dmax was 75% and the DC50 came to 46 nM.

In the case of `O=C1CCC(N2Cc3cc(C[C@H]4CCCC[C@@H]4NCc4cnccn4)ccc3C2=O)C(=O)N1` (stereo partly drawn) [Example 59, 3-(1-oxo-5-(((1R,2S)-2-((pyrazin-2-ylmethyl)amino)cyclohexyl)methyl)isoindolin-2-yl)piperidine-2,6-dione], the DC50 at IKZF1 was above 1000 nM. Besides, at IKZF2, the Dmax turned out to be 77% and the DC50 is 75 nM.

Consider `O=C1CCC(N2Cc3cc(C[C@H]4CCCC[C@@H]4NCC4OCCO4)ccc3C2=O)C(=O)N1` (stereo partly drawn) [Example 60, 3-(5-(((1R,2S)-2-(((1,3-dioxolan-2-yl)methyl)amino)cyclohexyl)methyl)-1-oxoisoindolin-2-yl)piperidine-2,6-dione], for which the results for the DC50 on IKZF1 and on IKZF2 were above 1000 nM and 65 nM, respectively. The molecule further came in with a Dmax at IKZF2 of 63%.

In the case of `C[C@@H](N[C@H]1CCCC[C@@H]1Cc1ccc2c(c1)CN(C1CCC(=O)NC1=O)C2=O)c1ccccc1` (stereo partly drawn) [Example 61, 3-(1-oxo-5-(((1R,2S)-2-(((R)-1-phenylethyl)amino)cyclohexyl)methyl)isoindolin-2-yl)piperidine-2,6-dione], the DC50 at IKZF1 was above 1000 nM; on IKZF2, 23 nM. Further, on IKZF2, the Dmax turned out to be 95%.

On to `O=C1CCC(N2Cc3cc(C[C@H]4CCCC[C@@H]4NCc4cccnc4F)ccc3C2=O)C(=O)N1` (stereo partly drawn) [Example 62], for which the DC50 on IKZF1 was above 1000 nM. Besides, on IKZF2, the Dmax was determined as 79% and the DC50 worked out at 56 nM.

Turning to `O=C1CCC(N2Cc3cc(C[C@H]4CCCC[C@@H]4NCCOc4ccccc4Cl)ccc3C2=O)C(=O)N1` (stereo partly drawn) [Example 65], the DC50 on IKZF1 is above 1000 nM. For the same molecule, on IKZF2, the Dmax was 64% and the DC50 was 48 nM.

Consider `C[C@H](N[C@H]1CCCC[C@@H]1Cc1ccc2c(c1)CN(C1CCC(=O)NC1=O)C2=O)c1ccccc1` (stereo partly drawn) [Example 66, 3-(1-oxo-5-(((1R,2S)-2-(((S)-1-phenylethyl)amino)cyclohexyl)methyl)isoindolin-2-yl)piperidine-2,6-dione], for which the DC50 at IKZF1 was above 1000 nM. Also, at IKZF2, the Dmax stood at 89% and the DC50 was found to be 17 nM.

`O=C1CCC(N2Cc3cc(C[C@H]4CCCC[C@@H]4N4CC(OCC5CC5)C4)ccc3C2=O)C(=O)N1` (stereo partly drawn) [Example 67, 3-(5-(((1R,2S)-2-(3-(cyclopropylmethoxy)azetidin-1-yl)cyclohexyl)methyl)-1-oxo-isoindolin-2-yl)piperidine-2,6-dione]: on IKZF1, the DC50 was above 1000 nM. On IKZF2, the Dmax came out at 74% and the DC50 was 30 nM.

For `O=C1CCC(N2Cc3cc(C[C@H]4CCCC[C@@H]4NCC4COC4)ccc3C2=O)C(=O)N1` (stereo partly drawn) [Example 68, 3-(5-(((1R,2S)-2-((oxetan-3-ylmethyl)amino)cyclohexyl)methyl)-1-oxoisoindolin-2-yl)piperidine-2,6-dione], the DC50 on IKZF1 is above 1000 nM. Moreover, on IKZF2, the Dmax worked out at 91% and the DC50 was 31 nM.

Take `O=C1CCC(N2Cc3cc(C[C@H]4CCCC[C@@H]4NCC4CCOC4)ccc3C2=O)C(=O)N1` (stereo partly drawn) [Example 69]: the DC50 at IKZF1 is above 1000 nM; on IKZF2, 19 nM. Moreover, on IKZF2, the Dmax was 91%.

As for `O=C1CCC(N2Cc3cc(C[C@H]4CCCC[C@@H]4N(CC4CCOCC4)CC4CCOCC4)ccc3C2=O)C(=O)N1` (stereo partly drawn) [Example 70], the DC50 at IKZF1 is above 1000 nM; on IKZF2, 80 nM. The molecule also registered a Dmax at IKZF2 of 48%.

Take `O=C1CCC(N2Cc3cc(C[C@H]4CCCC[C@@H]4NCC4CCOCC4)ccc3C2=O)C(=O)N1` (stereo partly drawn) [Example 71]: the values for the DC50 at IKZF1 and at IKZF2 were above 1000 nM and 37 nM, respectively. This molecule gave a Dmax on IKZF2 of 89%.

As to `O=C1CCC(N2Cc3cc(C[C@H]4CCCC[C@@H]4NC4COC4)ccc3C2=O)C(=O)N1` (stereo partly drawn) [Example 72], the DC50 was above 1000 nM at IKZF1 and 35 nM on IKZF2. At IKZF2, this molecule yielded a Dmax of 83%.

Take `O=C1CCC(N2Cc3cc(C[C@H]4CCCC[C@@H]4NC4CCOC4)ccc3C2=O)C(=O)N1` (stereo partly drawn) [Example 73]: the DC50 on IKZF1 is above 1000 nM. At IKZF2, the Dmax amounted to 95% and the DC50 is 7 nM.

For the molecule `CCOC1CC(N[C@H]2CCCC[C@@H]2Cc2ccc3c(c2)CN(C2CCC(=O)NC2=O)C3=O)C1` (stereo partly drawn) [Example 75], the Dmax at IKZF1 was found to be 51%; on IKZF2 it was 95%. Also, the DC50 on IKZF1 stood at 888 nM; on IKZF2, 7 nM.

For `COc1ccccc1CCN[C@H]1CCCC[C@@H]1Cc1ccc2c(c1)CN(C1CCC(=O)NC1=O)C2=O` (stereo partly drawn) [Example 76], the DC50 on IKZF1 was above 1000 nM. Also, at IKZF2, the Dmax is 84% and the DC50 turned out to be 34 nM.

For the molecule `CC(COc1ccccc1)N[C@H]1CCCC[C@@H]1Cc1ccc2c(c1)CN(C1CCC(=O)NC1=O)C2=O` (stereo partly drawn) [Example 77], at IKZF1, the DC50 was above 1000 nM. At IKZF2, the Dmax worked out at 90% and the DC50 was found to be 11 nM.

For `CCOCC(C)N[C@H]1CCCC[C@@H]1Cc1ccc2c(c1)CN(C1CCC(=O)NC1=O)C2=O` (stereo partly drawn) [Example 78], the DC50 on IKZF1 is above 1000 nM. On IKZF2, the greatest degradation seen (Dmax) was determined as 92% and the DC50 stood at 16 nM.

Turning to `O=C1CCC(N2Cc3cc(C[C@H]4CCCC[C@@H]4NC4CC5(COC5)C4)ccc3C2=O)C(=O)N1` (stereo partly drawn) [Example 80, 3-(5-(((1R,2S)-2-((2-oxaspiro[3.3]heptan-6-yl)amino)cyclohexyl)methyl)-1-oxoisoindolin-2-yl)piperidine-2,6-dione], at IKZF1, the Dmax turned out to be 32% and the DC50 came out at 299 nM. Besides, on IKZF2, the Dmax was 95% and the DC50 is 33 nM.
